The values that follow come from paper doi:10.1101/2021.02.22.432362v1 (biorxiv, 2021).

pIC50: −log10 of the molar value. Where two headings read alike, the source gives them in different places.

In one experiment the target is BRD8(1) (Homo sapiens, UniProt Q9H0E9). Briefly: AlphaScreen biotin-tracer competition. It is filed as binding.
The target in experiment [1] is BRD9 (Homo sapiens, UniProt Q9H8M2). Briefly: AlphaScreen tracer competition. It is filed as binding.
Target sequence in this assay (Q9H8M2 134-239 limits assumed): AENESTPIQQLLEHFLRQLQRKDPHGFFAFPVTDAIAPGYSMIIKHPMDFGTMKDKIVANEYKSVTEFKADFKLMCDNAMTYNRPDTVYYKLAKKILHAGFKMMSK
The next experiment addresses BRDT(2) (Homo sapiens, UniProt Q58F21). The experiment can be described thus: biochemical. To be noted: read-out: % Ctrl (1 uM).
Another experiment concerns the target BRD2(1) (Homo sapiens, UniProt P25440). Briefly: biochemical. The conditions noted are these: read-out: % Ctrl (1 uM).
A further experiment deals with Trim33(PHD,Bromo.) (Homo sapiens, UniProt Q9UPN9). The experiment can be described thus: biochemical. To be noted: read-out: % Ctrl (1 uM).
Another experiment addresses BRD3(1) (Homo sapiens, UniProt Q15059). The experiment can be described thus: biochemical. To be noted: read-out: % Ctrl (1 uM).
The target in the next experiment is TRIM24(PHD,Bromo.) (Homo sapiens, UniProt O15164). Briefly: biochemical. To be noted: read-out: % Ctrl (1 uM).
A further experiment has as its target WDR9(2) (Homo sapiens, UniProt Q9NSI6). Briefly: biochemical. To be noted: read-out: % Ctrl (1 uM).
The target in another experiment is CECR2 (Homo sapiens, UniProt Q9BXF3). Briefly: biochemical. The conditions noted are these: read-out: % Ctrl (1 uM).
The next experiment has as its target BRDT(1) (Homo sapiens, UniProt Q58F21). Briefly: biochemical. To be noted: read-out: % Ctrl (1 uM).
In another experiment the target is BRD7 (Homo sapiens, UniProt Q9NPI1). Briefly: biochemical. The conditions noted are these: read-out: % Ctrl (1 uM).
The next experiment addresses BRD4(2) (Homo sapiens, UniProt O60885). Briefly: biochemical. To be noted: read-out: % Ctrl (1 uM).
The target in a further experiment is BRD1 (Homo sapiens, UniProt O95696). The experiment can be described thus: biochemical. To be noted: read-out: % Ctrl (1 uM).
The next experiment has as its target PCAF (Homo sapiens, UniProt Q92831). Briefly: biochemical. The conditions noted are these: read-out: % Ctrl (1 uM).
Another experiment has as its target BRD3(2) (Homo sapiens, UniProt Q15059). The experiment can be described thus: biochemical. The conditions noted are these: read-out: % Ctrl (1 uM).
In a further experiment the target is PBRM1(5) (Homo sapiens, UniProt Q86U86). Briefly: biochemical. To be noted: read-out: % Ctrl (1 uM).
A further experiment addresses BRD2(2) (Homo sapiens, UniProt P25440). Briefly: biochemical. To be noted: read-out: % Ctrl (1 uM).
In a further experiment the target is TAF1L(2) (Homo sapiens, UniProt Q8IZX4). The experiment can be described thus: biochemical. The conditions noted are these: read-out: % Ctrl (1 uM).
Another experiment has as its target ATAD2A (Homo sapiens, UniProt Q6PL18). The experiment can be described thus: biochemical. To be noted: read-out: % Ctrl (1 uM).
Another experiment addresses FALZ (Homo sapiens, UniProt Q12830). The experiment can be described thus: biochemical. To be noted: read-out: % Ctrl (1 uM).
A further experiment has as its target TAF1(2) (Homo sapiens, UniProt P21675). Briefly: biochemical. The conditions noted are these: read-out: % Ctrl (1 uM).
A further experiment concerns the target BRD4(1) (Homo sapiens, UniProt O60885). The experiment can be described thus: biochemical. To be noted: read-out: % Ctrl (1 uM).
The target in another experiment is SMARCA4 (Homo sapiens, UniProt P51532). The experiment can be described thus: biochemical. To be noted: read-out: % Ctrl (1 uM).
A further experiment concerns the target SMARCA2 (Homo sapiens, UniProt P51531). Briefly: biochemical. To be noted: read-out: % Ctrl (1 uM).
Another experiment has as its target EP300 (Homo sapiens, UniProt Q09472). The experiment can be described thus: biochemical. The conditions noted are these: read-out: % Ctrl (1 uM).
In a further experiment the target is BAZ2B (Homo sapiens, UniProt Q9UIF8). Briefly: biochemical. To be noted: read-out: % Ctrl (1 uM).
The target in the next experiment is BRPF1 (Homo sapiens, UniProt P55201). The experiment can be described thus: biochemical. The conditions noted are these: read-out: % Ctrl (1 uM).
The target in another experiment is BAZ2A (Homo sapiens, UniProt Q9UIF9). Briefly: biochemical. To be noted: read-out: % Ctrl (1 uM).
In another experiment the target is CREBBP (Homo sapiens, UniProt Q92793). Briefly: biochemical. To be noted: read-out: % Ctrl (1 uM).
For the next experiment, the target named is GCN5L2 (Homo sapiens, UniProt Q92830). The experiment can be described thus: biochemical. The conditions noted are these: read-out: % Ctrl (1 uM).
Another experiment addresses ATAD2B (Homo sapiens, UniProt Q9ULI0). The experiment can be described thus: biochemical. To be noted: read-out: % Ctrl (1 uM).
Another experiment deals with BRPF3 (Homo sapiens, UniProt Q9ULD4). The experiment can be described thus: biochemical. To be noted: read-out: % Ctrl (1 uM).
Experiment [2] has as its target BRD9 (Homo sapiens, UniProt Q9H8M2). Briefly: biochemical. To be noted: read-out: % Ctrl (1 uM).
A further experiment has as its target PBRM1(2) (Homo sapiens, UniProt Q86U86). The experiment can be described thus: biochemical. To be noted: read-out: % Ctrl (1 uM).

Chain of BRD8(1) (Q9H0E9 706-811 limits assumed): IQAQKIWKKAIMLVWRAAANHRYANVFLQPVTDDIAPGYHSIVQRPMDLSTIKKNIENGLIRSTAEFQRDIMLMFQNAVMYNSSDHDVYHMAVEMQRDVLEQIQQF
Chain of ATAD2A (Q6PL18 whole entry): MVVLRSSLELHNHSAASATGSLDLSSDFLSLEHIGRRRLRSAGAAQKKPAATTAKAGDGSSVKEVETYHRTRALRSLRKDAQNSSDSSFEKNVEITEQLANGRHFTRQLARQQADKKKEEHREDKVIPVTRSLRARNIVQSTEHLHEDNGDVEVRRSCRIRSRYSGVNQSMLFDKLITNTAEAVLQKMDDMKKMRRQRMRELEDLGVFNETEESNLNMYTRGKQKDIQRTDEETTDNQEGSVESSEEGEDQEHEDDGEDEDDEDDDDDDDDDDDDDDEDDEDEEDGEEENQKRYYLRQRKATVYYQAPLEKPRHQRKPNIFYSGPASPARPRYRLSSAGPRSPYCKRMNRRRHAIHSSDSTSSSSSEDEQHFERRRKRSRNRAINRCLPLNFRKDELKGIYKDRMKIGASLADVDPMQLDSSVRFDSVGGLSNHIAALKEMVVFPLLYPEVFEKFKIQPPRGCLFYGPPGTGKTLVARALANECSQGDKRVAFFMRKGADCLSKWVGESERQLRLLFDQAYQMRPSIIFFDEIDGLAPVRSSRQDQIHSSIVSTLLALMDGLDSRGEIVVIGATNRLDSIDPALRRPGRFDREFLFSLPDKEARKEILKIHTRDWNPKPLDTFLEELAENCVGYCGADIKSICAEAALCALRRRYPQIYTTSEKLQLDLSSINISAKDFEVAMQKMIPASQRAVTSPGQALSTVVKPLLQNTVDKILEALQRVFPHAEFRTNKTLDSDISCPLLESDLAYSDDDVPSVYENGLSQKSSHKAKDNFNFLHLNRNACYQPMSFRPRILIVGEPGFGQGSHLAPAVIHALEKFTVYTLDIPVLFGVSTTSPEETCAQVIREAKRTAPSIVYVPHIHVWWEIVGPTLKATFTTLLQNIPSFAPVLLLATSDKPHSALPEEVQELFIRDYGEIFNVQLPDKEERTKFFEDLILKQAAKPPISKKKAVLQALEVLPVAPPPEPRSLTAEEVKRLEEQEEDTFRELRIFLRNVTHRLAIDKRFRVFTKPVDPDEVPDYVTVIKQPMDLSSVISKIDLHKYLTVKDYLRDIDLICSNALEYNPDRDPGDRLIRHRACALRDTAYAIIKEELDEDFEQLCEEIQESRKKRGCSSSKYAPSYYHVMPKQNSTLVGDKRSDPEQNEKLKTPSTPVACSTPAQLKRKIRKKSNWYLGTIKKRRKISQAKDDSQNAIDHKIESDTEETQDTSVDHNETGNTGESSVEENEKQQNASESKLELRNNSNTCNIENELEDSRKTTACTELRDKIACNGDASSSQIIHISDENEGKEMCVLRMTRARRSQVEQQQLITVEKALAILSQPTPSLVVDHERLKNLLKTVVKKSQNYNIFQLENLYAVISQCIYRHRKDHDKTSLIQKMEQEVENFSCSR
Chain of BRD2(1) (P25440 whole entry): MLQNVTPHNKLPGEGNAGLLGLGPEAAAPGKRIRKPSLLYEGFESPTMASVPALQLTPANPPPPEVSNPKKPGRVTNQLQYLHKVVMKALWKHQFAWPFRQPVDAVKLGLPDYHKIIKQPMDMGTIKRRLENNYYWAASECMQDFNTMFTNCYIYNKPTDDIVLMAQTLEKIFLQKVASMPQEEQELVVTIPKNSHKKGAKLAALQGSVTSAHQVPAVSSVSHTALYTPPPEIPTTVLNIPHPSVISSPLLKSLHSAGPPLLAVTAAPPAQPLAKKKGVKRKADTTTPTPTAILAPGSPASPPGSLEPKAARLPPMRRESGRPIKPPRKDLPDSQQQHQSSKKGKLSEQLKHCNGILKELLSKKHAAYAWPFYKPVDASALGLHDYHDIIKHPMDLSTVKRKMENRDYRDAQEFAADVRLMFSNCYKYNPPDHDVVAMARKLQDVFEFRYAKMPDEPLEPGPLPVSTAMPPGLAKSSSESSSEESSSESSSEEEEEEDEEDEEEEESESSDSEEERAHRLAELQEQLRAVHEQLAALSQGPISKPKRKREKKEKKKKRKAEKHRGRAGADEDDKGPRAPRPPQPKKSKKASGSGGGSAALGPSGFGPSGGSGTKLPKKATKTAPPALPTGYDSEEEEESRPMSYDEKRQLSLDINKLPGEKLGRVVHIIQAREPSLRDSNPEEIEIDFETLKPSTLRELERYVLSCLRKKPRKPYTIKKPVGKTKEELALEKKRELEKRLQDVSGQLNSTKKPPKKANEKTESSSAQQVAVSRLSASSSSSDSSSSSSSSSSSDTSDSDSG
Chain of BRD2(2) (P25440 whole entry): as above
Chain of PBRM1(5) (Q86U86 whole entry): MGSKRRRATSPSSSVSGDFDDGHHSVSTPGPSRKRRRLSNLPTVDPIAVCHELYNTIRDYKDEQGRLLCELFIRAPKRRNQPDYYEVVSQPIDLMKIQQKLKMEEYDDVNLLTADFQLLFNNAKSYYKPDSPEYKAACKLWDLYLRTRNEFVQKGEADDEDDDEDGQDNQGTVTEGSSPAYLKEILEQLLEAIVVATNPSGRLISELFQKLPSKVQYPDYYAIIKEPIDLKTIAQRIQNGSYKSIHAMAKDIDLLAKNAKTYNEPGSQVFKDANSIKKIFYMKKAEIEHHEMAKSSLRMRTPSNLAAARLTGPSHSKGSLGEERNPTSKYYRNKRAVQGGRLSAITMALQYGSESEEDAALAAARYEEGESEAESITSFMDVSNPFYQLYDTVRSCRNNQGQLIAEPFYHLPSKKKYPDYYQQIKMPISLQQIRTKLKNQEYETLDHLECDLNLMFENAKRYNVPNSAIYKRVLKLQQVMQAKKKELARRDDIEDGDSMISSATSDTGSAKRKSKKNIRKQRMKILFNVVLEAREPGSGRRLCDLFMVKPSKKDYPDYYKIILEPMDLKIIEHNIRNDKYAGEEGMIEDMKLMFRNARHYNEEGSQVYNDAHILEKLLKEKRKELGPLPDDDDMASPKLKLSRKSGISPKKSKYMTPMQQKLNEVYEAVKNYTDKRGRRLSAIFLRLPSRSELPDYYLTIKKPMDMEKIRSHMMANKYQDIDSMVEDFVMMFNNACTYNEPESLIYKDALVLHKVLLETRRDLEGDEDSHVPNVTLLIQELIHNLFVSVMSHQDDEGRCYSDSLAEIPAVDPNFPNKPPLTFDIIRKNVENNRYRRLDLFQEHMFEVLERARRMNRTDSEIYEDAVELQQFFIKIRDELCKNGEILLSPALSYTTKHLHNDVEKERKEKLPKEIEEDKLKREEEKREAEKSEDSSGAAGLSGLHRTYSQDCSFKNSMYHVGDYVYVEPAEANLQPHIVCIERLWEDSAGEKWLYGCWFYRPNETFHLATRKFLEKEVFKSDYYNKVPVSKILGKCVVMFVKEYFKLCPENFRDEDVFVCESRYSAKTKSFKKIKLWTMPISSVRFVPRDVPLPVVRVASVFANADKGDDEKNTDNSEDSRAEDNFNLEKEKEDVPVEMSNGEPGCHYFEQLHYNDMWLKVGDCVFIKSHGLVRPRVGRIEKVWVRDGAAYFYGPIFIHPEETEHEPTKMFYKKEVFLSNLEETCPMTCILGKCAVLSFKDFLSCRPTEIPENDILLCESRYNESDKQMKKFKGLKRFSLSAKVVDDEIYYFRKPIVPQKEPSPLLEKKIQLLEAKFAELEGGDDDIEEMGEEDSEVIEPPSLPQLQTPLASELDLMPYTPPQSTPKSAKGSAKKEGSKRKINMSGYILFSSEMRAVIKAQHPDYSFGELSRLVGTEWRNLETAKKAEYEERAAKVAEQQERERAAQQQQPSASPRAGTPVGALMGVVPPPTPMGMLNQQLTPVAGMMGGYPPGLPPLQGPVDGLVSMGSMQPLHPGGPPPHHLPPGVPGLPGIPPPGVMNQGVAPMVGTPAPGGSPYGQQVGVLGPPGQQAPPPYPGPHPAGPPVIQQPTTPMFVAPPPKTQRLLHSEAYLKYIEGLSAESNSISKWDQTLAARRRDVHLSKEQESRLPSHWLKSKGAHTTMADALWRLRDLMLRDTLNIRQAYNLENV

Regarding `COc1cc(-c2cn(C)c(=O)c3cnccc23)cc(OC)c1CN(C)C` [BI-7273], on BRD8(1) (tracer: compound 1-biotin), the IC50 entry was “less potently by I-BRD9 and BI-7273”.

As for `COc1ccc2ccccc2c1-c1cn(C)c(=O)c2cnccc12` [compound 2], on BRD9 [1], the pIC50 is below 5.00.

The molecule `COc1cc(-c2cn(C)c(=O)c3cnccc23)c(OC)cc1CN(C)C` [BI-9564] gave a negative logarithm of the IC50 (pIC50) on BRD8(1) (tracer: compound 1-biotin) of 6.01.

In the case of `COc1cc(CN2CC(N)C2)cc(OC)c1-c1cn(C)c(=O)c2cc(F)ccc12` [DN02], the remaining activity at 1 µM on BRDT(2) was determined as 88%; at BRD2(1), 72%; at Trim33(PHD,Bromo.) it was 92%; on BRD3(1) it was 76%; at TRIM24(PHD,Bromo.), 90%; at WDR9(2), 88%. The remaining activity at 1 µM at CECR2 came to 74%; on BRDT(1) it was 88%; at BRD7, 91%; at BRD4(2), 94%; at BRD1, 89%; on PCAF, 69%. The remaining activity at 1 µM on BRD3(2) was 75%; on PBRM1(5), 87%; at BRD2(2) it was 89%; at TAF1L(2), 91%; on ATAD2A, 100%; at FALZ it was 82%. Besides, the remaining activity at 1 µM on TAF1(2) was 79%; at BRD4(1), 88%; at SMARCA4, 71%; at SMARCA2 it was 74%; at EP300 it was 8.4%; on BAZ2B, 84%. Besides, the remaining activity at 1 µM on BRPF1 stood at 65%; on BAZ2A it was 69%; at CREBBP it was 9.2%; on GCN5L2 it was 86%; on ATAD2B, 79%; on BRPF3 it was 94%. Moreover, the remaining activity at 1 µM at BRD9 [2] came out at 80%; at PBRM1(2), 85%.

Regarding `COc1cc(CN(C)C)cc(OC)c1-c1cn(C)c(=O)c2cnccc12` [compound 3], the pIC50 was 7.07 on BRD8(1) and below 5.00 on BRD9 [1].
